In patent publication US20100316631A1, “Water Soluble Curcumin-Based Compounds” (THE UAB RESEARCH FOUNDATION, priority 2006, published 2010):

Experiments:
[1] = system: PC-3; assay: Cytotoxicity assay, PC-3 (prostate); conditions: Homo sapiens, PC-3, read-out: Cytotoxicity IC50, PC-3
Procedure: (§1) The growth inhibitory effects of conjugates 5 and 8 were examined through a series of cytoxcicity assays against a variety of cancer cell types of human origin. The cell types tested were PC-3 (prostate), LS-174T (colon), MIA PaCa-2 (pancreatic) and BxPC-3 (pancreatic).
(§2) The surviving cell populations were counted on the fourth day after treatment (96 hour post-treatment). The viable cells were then counted and the numbers of treated cells were normalized against the untreated controls (taken as 100%).
(§3) Tumor cells (as indicated) were maintained as monolayers in 75-cm^2 tissue culture flasks using their respective cell culture medium containing 10% fetal bovine serum and 2 mM L-glutamine. Incubation was at 37° C. under a humidified 5% CO2: air atmosphere (standard conditions) for five days. The cells were harvested when in mid-log growth and their concentration was determined using a particle counter (Beckman Coulter, Inc, Fullerton, Calif.). An aliquot of the cell suspension was diluted in culture medium for delivery to a 24-well tissue culture plate at a range of 10,000 to 30,000 per 1 mL per well. […] Following a 96-h incubation under standard conditions from the initial treatment, the viable cells were counted and the numbers were normalized to the percent of untreated controls. […]

[2] = cited from earlier work
[3] = system: BxPC-3; assay: Cytotoxicity assay, BxPC-3 (pancreatic); conditions: Homo sapiens, BXPC-3, read-out: Cytotoxicity IC50, Bx-PC3
Procedure: as §1, §2, §3

[4] = system: LS-174T; assay: Cytotoxicity assay, LS-174T (colon); conditions: Homo sapiens, LS174T, read-out: Cytotoxicity IC50, LS-174T
Procedure: as §1, §2, §3

[5] = system: MIA PaCa-2; assay: Cytotoxicity assay, MIA PaCa-2 (pancreatic); conditions: Homo sapiens, MIA PaCa-2, read-out: Cytotoxicity IC50, MIA PaCa-2
Procedure: as §1, §2, §3

COc1cc(/C=C/C(=O)CC(=O)/C=C/c2ccc(O)c(OC)c2)ccc1O [Curcumin, (E,E)-1,7-bis(4-hydroxy-3-methoxyphenyl)-1,6-heptadiene-3,5-dione]
IC50 [1]: 12 ± 1.35 µM
solubility in water and other aqueous solutions [2]: insoluble
IC50 [3]: 2 ± 0.3 µM
IC50 [4]: 6.5 ± 1.4 µM
IC50 [5]: 9 ± 2.5 µM
